Biological target: T1, PAR-1 receptor (Cricetulus griseus, UniProt A0A8C2QJ57)
T1 construct: Chinese hamster ovarian (CHO) cells constituently express PAR-1 receptor; endogenous in cells; host or cells: CHO cells
T1 sequence (A0A8C2QJ57 22-428): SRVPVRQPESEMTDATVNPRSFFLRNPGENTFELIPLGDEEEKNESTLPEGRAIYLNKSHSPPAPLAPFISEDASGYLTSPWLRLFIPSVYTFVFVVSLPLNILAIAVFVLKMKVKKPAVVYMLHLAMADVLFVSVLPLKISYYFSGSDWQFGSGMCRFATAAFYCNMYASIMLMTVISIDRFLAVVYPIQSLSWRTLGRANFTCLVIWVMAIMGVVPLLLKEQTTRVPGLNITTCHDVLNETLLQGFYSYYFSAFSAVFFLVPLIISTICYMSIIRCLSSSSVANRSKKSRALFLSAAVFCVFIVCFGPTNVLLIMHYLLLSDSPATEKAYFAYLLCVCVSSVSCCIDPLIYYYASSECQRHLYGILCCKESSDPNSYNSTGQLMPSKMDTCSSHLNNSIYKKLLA
Assay: Antagonism of SFLLR-induced calcium release in CHO cells (FLIPR, Fluo-3AM)
Format: cell-based, Chinese hamster
Details: agonist SFLLR-NH2, Arunlakshana and Schild method from EC50 shifts at three antagonist concentrations
Description: In a variety of cell types, activation of PAR-1 receptors by the SFLLR peptide (a selective PAR-1 agonist) triggers an intracellular signal cascade leading to the release of calcium by the endoplasmic reticulum. Chinese hamster ovarian (CHO) cells constituently express PAR-1 receptor. In this cell line, the release of calcium consecutive to receptor activation by SFLLR is measured by a fluorometry technique (fluorometric imaging plate reader, or FLIPR) using a selective probe for calcium (Fluo-3AM). The emission of fluorescence is pharmacologically proportional to the efficiency of the PAR-1 agonist and to its concentration.
Culture medium: Ham's F-12 (Ham, R. G., Proc. Nat. Acad. Sci. 1965, 53: 288) supplemented with 10% fetal calf serum and […].
Fluorescent probe: Fluo-3AM (4 μM; Teflabs, Austin, Tex., USA)
Agonist: SFLLR-NH2 (Serine, phenylalanine, leucine, leucine, arginine).
Methods: CHO cells are inoculated in 96-well plates (60,000 cells per well) in the presence of 200 μl of culture medium for 24 hours. The cells are incubated with the calcium fluorescent probe for 1 hour at 37° C. The cells are then washed 10 minutes before the signal is measured. PAR-1 antagonist is then injected (0.01 μM to 10 μM). The plates are placed in the FLIPR (Molecular Devices, UK) to measure calcium fluorescence at two wavelengths (488 nm and 540 nm: Sullivan et al., Calcium Signaling Protocols 1999, 125-136). Measurements are taken for 5 min before the antagonist is added and for 10 min following its administration. Maximum fluorescence minus baseline fluorescence is measured in 4 different wells. The test is carried out in duplicate. Under these conditions, the derivatives of the present invention were identified as PAR-1 receptor antagonists (antagonism>60% of the calcium signal at 10 μM). The dose-response curves (0.01 μM to 32 μM) obtained with the SFLLR agonist allowed determination of the effective concentration inducing 50% of the maximum effect (EC50). The strengths (pA2) of some of the PAR-1 antagonists described in the present invention were calculated using the method of Arunlakshana and Schild (Brit. J. Pharmacol., 1959, 14: 48-58) from the EC50 shifts observed at three concentrations.

Row | SMILES | pA2
1 | O=C(C=Cc1ccccc1F)N1CCN(Cc2ccc(F)cc2)CC1 [Example 2, 1-[4-(4-Fluoro-benzyl)-piperazin-1-yl]-3-(2-fluoro-phenyl)-propenone] | 6.50
2 | O=C(C=Cc1ccccc1[N+](=O)[O-])N1CCN(Cc2ccc(F)cc2)CC1 [Example 29, 1-[4-(4-Fluoro-benzyl)-piperazin-1-yl]-3-(2-nitro-phenyl)-propenone] | 6.98
3 | Cc1ccc(CN2CCN(C(=O)C=Cc3ccccc3Cl)CC2)cc1 [Example 4, 3-(2-Chloro-phenyl)-1-[4-(4-methyl-benzyl)-piperazin-1-yl]-propenone] | 6.05
4 | O=C(C=Cc1ccccc1Cl)N1CCN(Cc2ccccc2F)CC1 [Example 15, 3-(2-Chloro-phenyl)-1-[4-(2-fluoro-benzyl)-piperazin-1-yl]-propenone] | 6.39
5 | O=C(C=Cc1c(F)cccc1F)N1CCN(Cc2ccc(F)c(F)c2)CC1 [Example 8, 1-[4-(3,4-Difluoro-benzyl)-piperazin-1-yl]-3-(2,6-difluoro-phenyl)-propenone] | 6.32
6 | O=C(C=Cc1ccccc1Br)N1CCN(Cc2ccc(F)cc2)CC1 [Example 3, 3-(2-Bromo-phenyl)-1-[4-(4-fluoro-benzyl)-piperazin-1-yl]-propenone] | 6.36
7 | Cc1cccc(CN2CCN(C(=O)C=Cc3c(F)cccc3F)CC2)c1 [Example 10, 3-(2,6-Difluoro-phenyl)-1-[4-(3-methyl-benzyl)-piperazin-1-yl]-propenone] | 6.46

Same assay, conditions: agonist SFLLR-NH2, Arunlakshana and Schild method from EC50 shifts at three antagonist concentrations, read-out: pA2 (converted)

Row | SMILES | Kb
8 | O=C(/C=C/c1ccccc1Cl)N1CCN(CC2CCCCC2)CC1 [Example 28, 3-(2-Chloro-phenyl)-1-(4-cyclohexylmethyl-piperazin-1-yl)-] | 759 nM
9 | O=C(/C=C/c1ccccc1[N+](=O)[O-])N1CCN(CC2CCCCC2)CC1 [Example 25, 1-(4-Cyclohexylmethyl-piperazin-1-yl)-3-(2-nitro-phenyl)-propenone] | 166 nM
10 | O=C(/C=C/c1ccccc1Cl)N1CCN(Cc2ccc(F)cc2)CC1 [Example 1, 3-(2-Chloro-phenyl)-1-[4-(4-fluoro-benzyl)-piperazin-1-yl]-propenone] | 380 nM

From patent US8513258B2, “Cinnamoyl-piperazine derivatives and their use as par-1 antagonists” (Pierre Fabre Medicament, priority 2006, dated 2013)
